Results from article PMC10498496, “Design and Synthesis of Poly(2,2′-Bipyridyl) Ligands for Induction of Cell Death in Cancer Cells: Control of Anticancer Activity by Complexation/Decomplexation with Biorelevant Metal Cations” (Inorganic Chemistry, 2023).
Read-outs that look alike come from different tables or passages of the source. Numbered stars: 1 amine (or outer) side, 2 acyl side, 3 side chain; on linkers, the order of the positions; unused ones are H or OH. Bridge positions count the residues as written; N and C are the ends. Square brackets hold non-standard residues; d marks the D form. Peptide text beside a SMILES is read from it. I, II: the chains in the order shown. Actinocin(9to1) = Cc1c2oc3c(C)ccc(C(=O)[*:1])c3nc-2c(C(=O)[*:2])c(N)c1=O; NMeV = CN[C@H](C(=O)O)C(C)C; Sar = CNCC(=O)O

Experiments:
[1] = test system: Jurkat cells; assay: MTT assay, cytotoxicity against Jurkat cells; type: cell-based, human; conditions: Homo sapiens, Jurkat
Method: (§1) Second, we conducted the quantitative evaluation of the cytotoxicity of 1, 2, and 3 against various cancer cell lines by an MTT (3-(4,5-dimethylthiazol-2-yl)-2,5-diphenyltetrazolium bromide) assay. Jurkat, MOLT-4 (these two cell lines are human T-lymphocyte leukemia cells), and U937 (human lymphoma) cells (1.5 × 10^4 cells/well) were incubated in RPMI 1640 medium containing 10% FBS (fetal bovine serum) containing 1, 2, and 3 (0–25 μM) at 37 °C for 24 h, and then treated with the MTT reagent. A549 (human alveolar adenocarcinoma) and IMR-90 (normal human fetal lung fibroblast as model of normal cells) cells (1.5 × 10^4 cells/well) were incubated in DMEM (low glucose) with 10% FBS containing 1, 2, and 3 (0–25 μM), HeLa S3 (human epithelial carcinoma cells) cells (1.5 × 10^4 cells/well) were incubated in MEM with 10% FBS containing these ligands (0–25 μM) for 24 h at 37 °C and then treated with the MTT reagent.
(§2) • (a) Cytotoxic study. Jurkat cells, MOLT-4 cells, and U937 cells (1.5 × 10^5 cells/mL per one well) were incubated in 10% FBS RPMI 1640 medium containing 1 (0–25 μM), 2 (0–25 μM) , 3, cisplatin (0–100 μM), and actinomycin D (0–10 μM) under 5% CO2 at 37 °C for 24 h on 96 well plates (Watson), 0.5% MTT (3-(4,5-dimethyl-2-thiazolyl)-2,5-diphenyl-2H-tetrazolium bromide) reagent in PBS (10 μL) was then added to the cells. After incubation at 37 °C for 4 h, a formazan lysis solution (10% SDS in 0.01 N HCl) (100 μL) was added and the resulting solution was incubated overnight under the same conditions, followed by the measurement of absorbance at 570 nm with a microplate reader (BIO-RAD).

[2] = test system: Jurkat cells; assay: MTT assay in the presence of the caspase inhibitor Z-VAD-fmk; type: cell-based, human; conditions: Z-VAD-fmk 15 μM 3 h, then compound 12.5 μM for 24 h
Excerpt: We, therefore, selected Jurkat cells to study the cell death mechanism in detail, in this work. Programmed cell death (PCD) is generally classified into several types such as apoptosis, necroptosis, paraptosis, autophagic cell death, and so on.[30]−[33] We hypothesized that 1 and 2 function as inducers of apoptosis, which is a type of PCD in cancer cells, based on the morphological change of Jurkat cells observed in Figure 1 and mechanism of chelation therapy proposed in the previous studies.[11]−[19] It is known that the caspases family are cysteine proteases that play important roles in apoptosis and necroptosis.[38] Therefore, the effect of Z-VAD-fmk, which is known as one of general caspase inhibitors, on the cell death induced by 1 and cisplatin was examined.
Figure 3 Effect of Z-VAD-fmk on the cell death in Jurkat cells induced by 1. Jurkat cells were incubated in RPMI in the presence of Z-VAD-fmk (15 μM) for 3 h and then treated with (a) 1 (1 μM) and (b) cisplatin (50 μM) for 24 h. Asterisks indicate significant difference with *(P ≤ 0.05).
To investigate the mechanism responsible for the BAPTA-AM-induced cell death in Jurkat cells, Jurkat cells were incubated with Z-VAD-fmk (15 μM) for 3 h, and then cells were treated with BAPTA-AM (12.5 μM) for 24 h followed by an MTT assay.
IMR-90 cells in DMEM medium with 10% FBS (1.5 × 10^5 cells/mL) were seeded in to 96 well plates and incubated for 24 h at 37 °C, MTT assays with poly(bpy) ligands and their metal complexes (0–100 μM), cisplatin (0–100 μM), and actinomycin D (0–10 μM) were performed following the same procedure described above. These experiments were carried out at least three times. • (b) MTT assay in the presence of a caspase inhibitor. […]

[3] = test system: Jurkat cells; assay: MTT assay of Jurkat cells, effect of metal ions and incubation time on cytotoxicity of ligands; type: cell-based, human
Method: Next, we examined the effect of complexation of 1, 2, BAPTA, and BAPTA-AM with metal ions such as Cu(NO3)2, Zn(NO3)2, FeSO4, Co(NO3)2, and NiSO4 on their cytotoxicity against Jurkat cells. Mixture of ligands and metal ions were incubated for 1 h at 37 °C, and added to Jurkat cells for incubation for 12, 24, and 48 h at [ligand] = 0.78–25 μM and [M^2+] = 1.71–37.5 μM ([ligand]: [M^2+] = 1:1.5). After that, MTT assays were carried out, as shown in Figure S3 of the Supporting Information.
(§3) IMR-90 cells in DMEM medium with 10% FBS (1.5 × 10^5 cells/mL) were seeded in to 96 well plates and incubated for 24 h at 37 °C, MTT assays with poly(bpy) ligands and their metal complexes (0–100 μM), cisplatin (0–100 μM), and actinomycin D (0–10 μM) were performed following the same procedure described above. These experiments were carried out at least three times. • (b) MTT assay in the presence of a caspase inhibitor. Jurkat cells were pre-treated with Z-VAD-fmk (15 μM) for 3 h, a general caspases inhibitor, followed by the treatment with 1 (1 μM), BABTA-AM (12.5 μM) and cisplatin (50 μM), respectively, for 24 h, and then MTT assay was carried out as described above. • (c) For evaluation of the effect of metal ions on the cytotoxicity of 1, 2, BAPTA, and BAPTA-AM, these ligands were incubated with metal ions such as Cu(NO3)2, Zn(NO3)2, FeSO4, Co(NO3)2, and NiSO4 for 1 h, respectively, and added to Jurkat cells. The whole mixtures were incubated for 12, 24, and 48 h at [ligand] = 0.78–25 μM and at [M^2+] = 1.71–37.5 μM ([ligand]/[M^2+] = 1:1.5). The MTT assays were conducted as described above.

[4] = test system: IMR-90 cells; assay: MTT assay, cytotoxicity against IMR-90 cells (model of normal cells); type: cell-based, human; conditions: Homo sapiens, read-out: EC50 against IMR-90
Method: as §1, §3

[5] = test system: MOLT-4 cells; assay: MTT assay, cytotoxicity against MOLT-4 cells; type: cell-based, human; conditions: Homo sapiens, read-out: EC50 against MOLT-4
Method: as §1, §2

[6] = test system: HeLa S3 cells; assay: MTT assay, cytotoxicity against HeLa S3 cells; type: cell-based, human; conditions: Homo sapiens
Method: Second, we conducted the quantitative evaluation of the cytotoxicity of 1, 2, and 3 against various cancer cell lines by an MTT (3-(4,5-dimethylthiazol-2-yl)-2,5-diphenyltetrazolium bromide) assay. Jurkat, MOLT-4 (these two cell lines are human T-lymphocyte leukemia cells), and U937 (human lymphoma) cells (1.5 × 10^4 cells/well) were incubated in RPMI 1640 medium containing 10% FBS (fetal bovine serum) containing 1, 2, and 3 (0–25 μM) at 37 °C for 24 h, and then treated with the MTT reagent. […]
(§4) HeLa S3 cells and A549 cells in MEM and DMEM medium with 10% FBS (1.5 × 10^5 cells/mL per one well) were seeded in to 96 well plates and incubated for 24 h, MTT assay of poly(bpy) ligands (0–25 μM), cisplatin (0–100 μM), and actinomycin D (0–10 μM) was performed according to the same procedure described above.

[7] = test system: A549 cells; assay: MTT assay, cytotoxicity against A549 cells; type: cell-based, human; conditions: Homo sapiens, A549, 37 °C, treated for 24 h
Method: as §1, §4

[8] = test system: U937 cells; assay: MTT assay, cytotoxicity against U937 cells; type: cell-based, human; conditions: Homo sapiens, read-out: EC50 against U937
Method: as §1, §2

[9] = test system: MOLT-4 cells; set-up: method as in earlier work; conditions: ref 52 (Morita et al., Oncotarget 2013); read-out: EC50, cytotoxicity against MOLT-4 cells; cited from earlier work
[10] = MTT, 37 °C, treated for 24 h, read-out: EC50 against Jurkat (converted)
[11] = Homo sapiens, Jurkat, no metal, incubation 48 h (Figure 9, S4), read-out: EC50 against Jurkat cells, metal-free ligand
[12] = IMR-90, MTT, 37 °C, treated for 24 h
[13] = MOLT-4, MTT, 37 °C, treated for 24 h
[14] = HeLa S3, MTT, 37 °C, treated for 24 h, read-out: EC50 against HeLa S3 (converted)
[15] = U-937, MTT, 37 °C, treated for 24 h

| Compound | EC50 [1, 10] [µM] | EC50 [3, 11] [µM] | EC50 [4, 12] [µM] | EC50 [5, 13] [µM] | EC50 [6, 14] [µM] | EC50 [7] [µM] | EC50 [8, 15] [µM] | melting point [°C] | further results |
| --- | --- | --- | --- | --- | --- | --- | --- | --- | --- |
| CC(=O)OCOC(=O)CN(CC(=O)OCOC(C)=O)c1ccccc1OCCOc1ccccc1N(CC(=O)OCOC(C)=O)CC(=O)OCOC(C)=O [BAPTA-AM, reference compound] | 8.6 ± 0.3 | 7.9 | > 50 | 13.2 ± 0.2 | > 50 | > 50 | 7.1 ± 0.4 |  | cell viability of Jurkat cells after preincubation with Z-VAD-fmk [2]: considerably restored; EC50 ([3]; Homo sapiens, Jurkat, no metal, incubation 24 h (Figure S4), read-out: EC50 against Jurkat cells, ligand alone): 8.6 µM |
| O=[N+]([O-])[O-].O=[N+]([O-])[O-].[Co+2] [Co^2+, Co(NO3)2] |  |  |  |  |  |  |  |  | EC50 ([3]; no ligand, incubation 48 h (Figure 9a), read-out: EC50 of ligand-free metal ion against Jurkat cells): 13 µM |
| c1ccc(CN(CCN(Cc2ccccn2)Cc2ccccn2)Cc2ccccn2)nc1 [TPEN, N,N,N′,N′-tetra(2-pyrydylmethyl)ethylene diamine] |  |  |  |  |  |  |  |  | EC50 [9]: ~8 µM |
| Cc1c2oc3c(C)ccc(C(=O)N[C@@H]4C(=O)N[C@H](C(C)C)C(=O)N5CCC[C@H]5C(=O)N(C)CC(=O)N(C)[C@@H](C(C)C)C(=O)O[C@@H]4C)c3nc-2c(C(=O)N[C@@H]2C(=O)N[C@H](C(C)C)C(=O)N3CCC[C@H]3C(=O)N(C)CC(=O)N(C)[C@@H](C(C)C)C(=O)O[C@@H]2C)c(N)c1=O [actinomycin D, reference compound] (I: T[dV]P[Sar][NMeV] / II: T[dV]P[Sar][NMeV]; ester I:1-I:C, II:1-II:C; linker I:N-II:N via Actinocin(9to1)) |  |  |  |  |  |  |  |  | EC50 ([1]; 24 h, read-out: EC50 against Jurkat): 0.005 µM; EC50 ([4]; IMR-90, 24 h): 53 ± 2.6 µM; EC50 ([5]; MOLT-4, 24 h): 0.003 µM; EC50 ([6]; HeLa S3, 24 h, read-out: EC50 against HeLa S3): > 10 µM; EC50 ([8]; U-937, 24 h): 0.051 µM |
| c1ccc(-c2ccc(OCc3cccc(COc4ccc(-c5ccccn5)nc4)c3)cn2)nc1 [compound 2, 1,3-Bis(([2,2′-Bipyridin]-5-yloxy)methyl)benzene] | 0.77 ± 0.56 | ~0.1 | > 100 | 0.64 ± 0.55 | 15 ± 1.34 | 9.5 ± 1.2 | 0.59 ± 0.33 | 135 to 136 | EC50 ([3]; Homo sapiens, Jurkat, no metal, incubation 12 h (Figure 9), read-out: EC50 against Jurkat cells, metal-free ligand): ~2 µM |
| c1ccc(COc2ccc(-c3ccccn3)nc2)cc1 [compound 3, 5-(Benzyloxy)-2,2′-bipyridine] | 13 ± 0.34 |  | 75 ± 0.1 | 8.7 ± 0.89 | 15 ± 0.37 | 11 ± 0.55 | 5.6 ± 0.77 | 85 to 87 |  |
